These results are taken from US11820766B2, “Monoacylglycerol lipase modulators” (Janssen Pharmaceutica NV, priority 2018, dated 2023).

pIC50: −log10 of the molar value.

The target of the assay is T1, human MGL from HeLa cells (Homo sapiens, UniProt Q99685).
T1 construct: combining endogenously expressed MGL from HeLa cells with test compounds; endogenous in cells; host or cells: HeLa cells / cell homogenates
T1 sequence (Q99685 1-303): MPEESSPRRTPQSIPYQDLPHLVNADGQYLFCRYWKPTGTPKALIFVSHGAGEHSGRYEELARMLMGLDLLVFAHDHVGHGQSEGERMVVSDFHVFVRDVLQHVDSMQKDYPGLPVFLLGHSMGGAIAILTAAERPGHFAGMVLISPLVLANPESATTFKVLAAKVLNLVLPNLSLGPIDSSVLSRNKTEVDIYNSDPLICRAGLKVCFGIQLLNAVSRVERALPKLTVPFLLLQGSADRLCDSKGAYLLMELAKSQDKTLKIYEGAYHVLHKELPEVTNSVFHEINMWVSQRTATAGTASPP
As to the kind of experiment: In vitro MGL activity assay: [glycerol-1,3-3H]-oleyl glycerol cleavage by MGL from HeLa cells. The note with it: 300 nM [Glycerol-1,3-3H]-oleyl glycerol, one hour incubation. Format: biochemical. An excerpt:
MGL is the predominant hydrolase in HeLa cells/cell homogenates.
The compound `C[C@H]1c2nn(C)c(-c3cc(F)c(F)c(F)c3)c2CCN1C(=O)c1c(F)cccc1-n1nccn1` [Example 288, [(7S)-2,7-Dimethyl-3-(3,4,5-trifluorophenyl)-5,7-dihydro-4H-pyrazolo[3,4-c]pyridin-6-yl]-[2-fluoro-6-(triazol-2-yl)phenyl]methanone] had a pIC50 of 7.22. `COc1ccc(-n2nccn2)c(C(=O)N2CCc3c(nn(C)c3-c3cc(F)c(F)c(F)c3)[C@@H]2C)c1` [Example 289, [(7S)-2,7-Dimethyl-3-(3,4,5-trifluorophenyl)-5,7-dihydro-4H-pyrazolo[3,4-c]pyridin-6-yl]-[5-methoxy-2-(triazol-2-yl)phenyl]methanone] showed a negative logarithm of the IC50 (pIC50) of 7.70. The value for `C[C@H]1c2nn(C)c(-c3cc(F)c(F)c(F)c3)c2CCN1C(=O)c1cccc(-n2cnnc2)c1` [Example 290, [(7S)-2,7-Dimethyl-3-(3,4,5-trifluorophenyl)-5,7-dihydro-4H-pyrazolo[3,4-c]pyridin-6-yl]-[3-(1,2,4-triazol-4-yl)phenyl]methanone] was 7.14; that for `C[C@H]1c2nn(C)c(-c3cc(F)c(F)c(F)c3)c2CCN1C(=O)c1ccc(F)c(-n2cnnc2)c1` [Example 291, [(7S)-2,7-Dimethyl-3-(3,4,5-trifluorophenyl)-5,7-dihydro-4H-pyrazolo[3,4-c]pyridin-6-yl]-[4-fluoro-3-(1,2,4-triazol-4-yl)phenyl]methanone] was 5.86.

With `C[C@H]1c2nn(C)c(-c3cc(F)c(F)c(F)c3)c2CCN1C(=O)c1cc(F)cc(-n2cnnc2)c1` [Example 292, [(7S)-2,7-Dimethyl-3-(3,4,5-trifluorophenyl)-5,7-dihydro-4H-pyrazolo[3,4-c]pyridin-6-yl]-[3-fluoro-5-(1,2,4-triazol-4-yl)phenyl]methanone], the pIC50 is 6.61. The compound `Cc1cc(C(=O)N2CCc3c(nn(C)c3-c3cc(F)c(F)c(F)c3)[C@@H]2C)cc(-n2cnnc2)c1` [Example 293, [(7S)-2,7-Dimethyl-3-(3,4,5-trifluorophenyl)-5,7-dihydro-4H-pyrazolo[3,4-c]pyridin-6-yl]-[3-methyl-5-(1,2,4-triazol-4-yl)phenyl]methanone] had a pIC50 of 7.20. For the compound `Cc1ccc(C(=O)N2CCc3c(nn(C)c3-c3cc(F)c(F)c(F)c3)[C@@H]2C)cc1-n1cnnc1` [Example 294, [(7S)-2,7-Dimethyl-3-(3,4,5-trifluorophenyl)-5,7-dihydro-4H-pyrazolo[3,4-c]pyridin-6-yl]-[4-methyl-3-(1,2,4-triazol-4-yl)phenyl]methanone], the negative-log IC50 (pIC50) is 5.78. For the compound `C[C@H]1c2nn(C)c(-c3cc(F)c(F)c(F)c3)c2CCN1C(=O)c1cc(-n2cnnc2)cc(C(F)(F)F)c1` [Example 296, [(7S)-2,7-Dimethyl-3-(3,4,5-trifluorophenyl)-5,7-dihydro-4H-pyrazolo[3,4-c]pyridin-6-yl]-[3-(1,2,4-triazol-4-yl)-5-(trifluoromethyl)phenyl]methanone], the pIC50 is 6.22. Compared with the last compound, the pIC50 is 0.44 log units higher.

As for `COc1ccc(C(=O)N2CCc3c(nn(C)c3-c3cc(F)c(F)c(F)c3)[C@@H]2C)cc1-n1cnnc1` [Example 297, [(7S)-2,7-Dimethyl-3-(3,4,5-trifluorophenyl)-5,7-dihydro-4H-pyrazolo[3,4-c]pyridin-6-yl]-[4-methoxy-3-(1,2,4-triazol-4-yl)phenyl]methanone], the pIC50 was 6.03.

With `COc1cc(C(=O)N2CCc3c(nn(C)c3-c3cc(F)c(F)c(F)c3)[C@@H]2C)cc(-n2cnnc2)c1` [Example 298, [(7S)-2,7-Dimethyl-3-(3,4,5-trifluorophenyl)-5,7-dihydro-4H-pyrazolo[3,4-c]pyridin-6-yl]-[3-methoxy-5-(1,2,4-triazol-4-yl)phenyl]methanone], the pIC50 is 7.73. Against the preceding compound, the pIC50 is 1.70 log units higher. The value for `COc1ccc(C(=O)N2CCc3c(nn(C)c3-c3cc(F)c(F)c(F)c3)[C@@H]2C)cn1` [Example 300, [(7S)-2,7-Dimethyl-3-(3,4,5-trifluorophenyl)-5,7-dihydro-4H-pyrazolo[3,4-c]pyridin-6-yl]-(6-methoxy-3-pyridyl)methanone] was 6.58. The value for `COc1ccc(C(=O)N2CCc3c(nn(C)c3-c3cc(F)c(F)c(F)c3)[C@@H]2C)nc1` [Example 301, [(7S)-2,7-Dimethyl-3-(3,4,5-trifluorophenyl)-5,7-dihydro-4H-pyrazolo[3,4-c]pyridin-6-yl]-(5-methoxy-2-pyridyl)methanone] was 6.61; that for `COc1ccc(C)c(C(=O)N2CCc3c(nn(C)c3-c3cc(F)c(F)c(F)c3)[C@@H]2C)n1` [Example 302, [(7S)-2,7-Dimethyl-3-(3,4,5-trifluorophenyl)-5,7-dihydro-4H-pyrazolo[3,4-c]pyridin-6-yl]-(6-methoxy-3-methyl-2-pyridyl)methanone] was 6.51. The result for `COc1cccnc1C(=O)N1CCc2c(nn(C)c2-c2cc(F)c(F)c(F)c2)[C@@H]1C` [Example 303, [(7S)-2,7-Dimethyl-3-(3,4,5-trifluorophenyl)-5,7-dihydro-4H-pyrazolo[3,4-c]pyridin-6-yl]-(3-methoxy-2-pyridyl)methanone] reads 6.95.

Compound `COCc1cncc(C(=O)N2CCc3c(nn(C)c3-c3cc(F)c(F)c(F)c3)[C@@H]2C)c1` [Example 304, [(7S)-2,7-Dimethyl-3-(3,4,5-trifluorophenyl)-5,7-dihydro-4H-pyrazolo[3,4-c]pyridin-6-yl]-[5-(methoxymethyl)-3-pyridyl]methanone] gave a pIC50 of 6.24. The result for `CC(C)Oc1cncc(C(=O)N2CCc3c(nn(C)c3-c3cc(F)c(F)c(F)c3)[C@@H]2C)c1` [Example 305, [(7S)-2,7-Dimethyl-3-(3,4,5-trifluorophenyl)-5,7-dihydro-4H-pyrazolo[3,4-c]pyridin-6-yl]-(5-isopropoxy-3-pyridyl)methanone] reads 6.64; that for `COc1ccc(C(=O)N2CCc3c(nn(C)c3-c3cc(F)c(F)c(F)c3)[C@@H]2C)c(C)n1` [Example 306, [(7S)-2,7-Dimethyl-3-(3,4,5-trifluorophenyl)-5,7-dihydro-4H-pyrazolo[3,4-c]pyridin-6-yl]-(6-methoxy-2-methyl-3-pyridyl)methanone], 6.72; that for `COc1ccnc(C(=O)N2CCc3c(nn(C)c3-c3cc(F)c(F)c(F)c3)[C@@H]2C)c1C` [Example 307, [(7S)-2,7-Dimethyl-3-(3,4,5-trifluorophenyl)-5,7-dihydro-4H-pyrazolo[3,4-c]pyridin-6-yl]-(4-methoxy-3-methyl-2-pyridyl)methanone], 6.74. In turn, `COc1cnc(C)c(C(=O)N2CCc3c(nn(C)c3-c3cc(F)c(F)c(F)c3)[C@@H]2C)c1` [Example 308, [(7S)-2,7-Dimethyl-3-(3,4,5-trifluorophenyl)-5,7-dihydro-4H-pyrazolo[3,4-c]pyridin-6-yl]-(5-methoxy-2-methyl-3-pyridyl)methanone] gave a pIC50 of 6.94. The result for `COc1ccnc(C(=O)N2CCc3c(nn(C)c3-c3cc(F)c(F)c(F)c3)[C@@H]2C)c1` [Example 309, [(7S)-2,7-Dimethyl-3-(3,4,5-trifluorophenyl)-5,7-dihydro-4H-pyrazolo[3,4-c]pyridin-6-yl]-(4-methoxy-2-pyridyl)methanone] reads 6.66.

`COc1cc(C(=O)N2CCc3c(nn(C)c3-c3cc(F)c(F)c(F)c3)[C@@H]2C)cnc1C` [Example 310, [(7S)-2,7-Dimethyl-3-(3,4,5-trifluorophenyl)-5,7-dihydro-4H-pyrazolo[3,4-c]pyridin-6-yl]-(5-methoxy-6-methyl-3-pyridyl)methanone] gave a pIC50 of 7.02.

One may read the pIC50 as the negative decadic logarithm of the IC50, by convention in mol/L. Low values mean a large IC50, high ones a small IC50.
